Measurements from PubChem BioAssay AID256 (DTP/NCI, 2004).
Several values for one entry are separate records, joined by “and”; a condition that tells them apart may be missing. Equal values may be shown once. Inconclusive results and toxic doses are left out.

Test system: CD2F1 mice, L1210 leukemia ip, survival T/C
Assay: NCI In Vivo Anticancer Drug Screen. Data for tumor model L1210 Leukemia (intraperitoneal) in CD2F1 (CDF1) mice
Conditions: endpoint: mean survival time, higher = longer survival
Summary of the method: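 Mice carrying a transplanted tumor received test compound or vehicle alone. The value is the measurement in the treated group divided by that in the vehicle-treated control group.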

[1] = dose: 50.0 mg/kg/injection, schedule: Q01DX009 (ip), vehicle: saline with Tween-80
[2] = dose: 100.0 mg/kg/injection, schedule: Q01DX009 (ip), vehicle: saline with Tween-80
[3] = dose: 200.0 mg/kg/injection, schedule: Q01DX009 (ip), vehicle: saline with Tween-80
[4] = dose: 100.0 mg/kg/injection, schedule: Q04DX003 (ip), vehicle: saline with Tween-80
[5] = dose: 200.0 mg/kg/injection, schedule: Q04DX003 (ip), vehicle: saline with Tween-80

CCCCOC(=O)CC(O)C(=O)OCCCC (stereo not drawn)
T/C [1]: 113 % of control
T/C [2]: 107 % of control
T/C [3]: 103 % of control

CC[CH2][Sn]([CH2]CC)([CH2]CCC#N)[O]C(C)=O
T/C (dose: 0.09 mg/kg/injection, schedule: Q01DX009 (ip), vehicle: saline): 97 % of control
T/C (dose: 0.19 mg/kg/injection, schedule: Q01DX009 (ip), vehicle: saline): 101 % of control
T/C (dose: 0.39 mg/kg/injection, schedule: Q01DX009 (ip), vehicle: saline): 100 % of control and 105 % of control
T/C (dose: 1.56 mg/kg/injection, schedule: Q01DX009 (ip), vehicle: saline): 103 % of control

CC(CCCOS(C)(=O)=O)OS(C)(=O)=O (stereo not drawn)
T/C (dose: 25.0 mg/kg/injection, schedule: Q04DX002 (ip), vehicle: Klucel (hydroxypropylcellulose) (HPC)): 105 % of control
T/C (dose: 50.0 mg/kg/injection, schedule: Q04DX002 (ip), vehicle: Klucel (hydroxypropylcellulose) (HPC)): 108 % of control
T/C (dose: 100.0 mg/kg/injection, schedule: Q04DX002 (ip), vehicle: Klucel (hydroxypropylcellulose) (HPC)): 94 % of control

O=c1[nH]c(=S)c(SCc2ccccc2)nn1C1OC(CO)C(O)C1O (stereo not drawn)
T/C (dose: 12.5 mg/kg/injection, schedule: Q01DX005 (ip), vehicle: distilled water + Tween-80): 95 % of control
T/C (dose: 25.0 mg/kg/injection, schedule: Q01DX005 (ip), vehicle: distilled water + Tween-80): 97 % of control
T/C (dose: 50.0 mg/kg/injection, schedule: Q01DX005 (ip), vehicle: distilled water + Tween-80): 100 % of control
T/C (dose: 100.0 mg/kg/injection, schedule: Q01DX005 (ip), vehicle: distilled water + Tween-80): 95 % of control
T/C (dose: 200.0 mg/kg/injection, schedule: Q01DX005 (ip), vehicle: distilled water + Tween-80): 94 % of control

COC(=O)COS(=O)(=O)c1ccc(C)cc1
T/C (dose: 100.0 mg/kg/injection, schedule: Q01DX001 (ip), vehicle: saline with Tween-80): 95 % of control
T/C (dose: 200.0 mg/kg/injection, schedule: Q01DX001 (ip), vehicle: saline with Tween-80): 96 % of control
T/C (dose: 400.0 mg/kg/injection, schedule: Q01DX001 (ip), vehicle: saline with Tween-80): 100 % of control

O=C(CCCl)Oc1c(Cl)c(Cl)c(Cl)c(Cl)c1Cl
T/C [2]: 92 % of control

CC(=O)[c-]1[c-][c-][c-][c-]1.[Fe+2].[c-]1[c-][c-][cH-][c-]1
T/C (dose: 200.0 mg/kg/injection, schedule: Q01DX001 (ip), vehicle: saline): 102 % of control
T/C (dose: 400.0 mg/kg/injection, schedule: Q01DX001 (ip), vehicle: saline): 100 % of control

CC(=O)Nc1ccc(C(=O)CCl)cc1
T/C [4]: 90 % of control

CC(=O)c1ccc(CCCCCCCC(=O)O)o1
T/C (dose: 50.0 mg/kg/injection, schedule: Q01DX001 (ip), vehicle: Klucel (hydroxypropylcellulose) (HPC)): 97 % of control
T/C (dose: 100.0 mg/kg/injection, schedule: Q01DX001 (ip), vehicle: Klucel (hydroxypropylcellulose) (HPC)): 101 % of control
T/C (dose: 200.0 mg/kg/injection, schedule: Q01DX001 (ip), vehicle: Klucel (hydroxypropylcellulose) (HPC)): 94 % of control

CCCCCOC(=O)CC(N)C(=O)OCCCCC (stereo not drawn)
T/C [1]: 96 % of control
T/C [2]: 100 % of control
T/C [4]: 93 % of control
T/C [3]: 91 % of control
T/C [5]: 93 % of control

CN1CCC(C(O)c2ccccc2)CC1 (stereo not drawn)
T/C [4]: 102 % of control
T/C [5]: 100 % of control
T/C (dose: 400.0 mg/kg/injection, schedule: Q04DX003 (ip), vehicle: saline with Tween-80): 88 % of control

Cc1nc2c(NC(=O)CCl)nn(C)c2nc1C
T/C [4]: 98 % of control
T/C [5]: 95 % of control

C[n+]1cccc2cccc(C(=O)O)c21
T/C (dose: 37.5 mg/kg/injection, schedule: Q01DX009 (ip), vehicle: saline with Tween-80): 112 % of control
T/C (dose: 75.0 mg/kg/injection, schedule: Q01DX009 (ip), vehicle: saline with Tween-80): 109 % of control
T/C (dose: 150.0 mg/kg/injection, schedule: Q01DX009 (ip), vehicle: saline with Tween-80): 107 % of control
